Results from patent US11760773B2, “Small molecule drug conjugates of gemcitabine monophosphate” (MaveriX Oncology, Inc., priority 2018, dated 2023).
Where two headings read alike, the source gives them in different places.

Legend:
Format in all cases: in vivo
[1] = Comparative plasma PK of Int 1-4 versus gemcitabine in mouse (study a); conditions: CD-1 mice
[2] = Comparative plasma PK of Compound 1 versus Int 1-4 in male CD-1 mice (study b); conditions: male, CD-1, mouse, iv; for Cmax: read-out: Cmax; for Tmax: read-out: Tmax
Protocol: Objectives: to compare the plasma pharmacokinetics and stability of Compound 1 with its non-phosphorylated SMDC analog (Int 1-4) and in plasma following a single intravenous infusion administration of Compound 1 at 11.6 mg/kg and 23.2 mg/kg with Int 1-4 (formulation F1 & F2) at 10.0 mg/kg in male CD-1 mice
PK measurements: compare PK parameters C0, CL, Vdss, Cmax, tmax, t1/2, AUC(0-t), AUC(0-inf), MRT(0-t), MRT(0-inf) for Compound 1 and Int 1-4

[3] = Int 1-4 plasma PK in the male cynomolgus monkey (study f); conditions: for C0: read-out: C0; for MRT inf: read-out: MRT0-inf; for MRT last: read-out: MRT0-last; for Vd: read-out: Vdss
Protocol: Objectives: to compare the plasma pharmacokinetics and stability of Int 1-4 in plasma following single intravenous infusion administration of Int 1-4 at 5 mg/kg and 10 mg/kg in the male cynomolgus monkey
PK measurements: compare PK parameters C0, CL, Vdss, Cmax, tmax, t, AUC(0-t), AUC(0-inf), MRT(0-t), MRT(0-inf) for Int 1-4

[4] = Int 1-4 and gemcitabine comparative PK in male cynomolgus monkey (study g); conditions: for AUC(0-t) / C0 / clearance / half-life / AUC(0-inf) / MRT inf / MRT last / Vd: plasma, male cynomolgus monkey; for AUC(0-inf): read-out: AUC0-inf; for MRT inf: read-out: MRT0-inf; for MRT last: read-out: MRT0-last; for Vd: read-out: Vdss
Protocol: Objectives: to compare the plasma pharmacokinetics and stability of Int 1-4 versus gemcitabine in plasma following single intravenous infusion administration of Int 1-4 at 5 mg/kg and 10 mg/kg with equimolar gemcitabine at 2.65 mg/kg and 5.29 mg/kg in male cynomolgous monkeys
PK measurements: compare PK parameters C0, CL, Vdss, Cmax, tmax, t1/2, AUC(0-t), AUC(0-inf), MRT(0-t), MRT(0-inf) for Int 1-4 with gemcitabine

[5] = Int 1-4 dog plasma PK (study j); conditions: male beagle dog; for AUC(0-inf): read-out: AUC0-inf; for MRT inf: read-out: MRT0-inf; for MRT last: read-out: MRT0-last; for Vd: read-out: Vdss
Protocol: Objectives: to compare the plasma pharmacokinetics and stability of Int 1-4 in plasma following single intravenous infusion administration of t 1-4 at 10 mg/kg and 20 mg/kg in the male Beagle dog.

[6] = Comparative dog plasma PK of Int 1-4 versus gemcitabine (study k); conditions: male beagle dog; for AUC(0-inf): read-out: AUC0-inf; for MRT inf: read-out: MRT0-inf; for MRT last: read-out: MRT0-last; for Vd: read-out: Vdss
Protocol: Objectives: to compare the plasma pharmacokinetics and stability of Int-4 in plasma following single intravenous infusion administration of Int 1-4 at 5 mg/kg and 10 mg/kg versus gemcitabine at 5 mg/kg in the male Beagle dog

[7] = mouse, plasma, after iv Int 1-4 9.4 mg/kg
[8] = 10 mg/kg, after iv Int 1-4 10.0 mg/kg, Formulation 1
[9] = 10 mg/kg, after iv Int 1-4 10.0 mg/kg, Formulation 2
[10] = 11.6 mg/kg, after iv Compound 1 11.6 mg/kg
[11] = 23.2 mg/kg, after iv Compound 1 23.2 mg/kg
[12] = after iv Int 1-4 5 mg/kg (study f)
[13] = after iv Int 1-4 10 mg/kg (study f)
[14] = after iv Int 1-4 5 mg/kg (study g)
[15] = after iv Int 1-4 10 mg/kg (study g)
[16] = after iv Int 1-4 10 mg/kg (study j)
[17] = after iv Int 1-4 20 mg/kg (study j)
[18] = after iv Int 1-4 5 mg/kg (study k)
[19] = after iv Int 1-4 10 mg/kg (study k)

SMILES: COc1cc(OC)c2oc(COC(=O)Nc3ccn([C@@H]4O[C@H](CO)[C@@H](O)C4(F)F)c(=O)n3)cc2c1 [Int 1-4, (5,7-di(methoxy)benzofuran-2-yl)methyl (1-((2R,4R,5R)-3,3-difluoro-4-hydroxy-5-(hydroxymethyl)tetrahydrofuran-2-yl)-2-oxo-1,2-dihydropyrimidin-4-yl)carbamate]
- plasma clearance and tissue uptake ([1]; after iv Int 1-4): quickly clears the plasma
- AUC(0-t) [1, 7]: 4980 ng·h/mL
- C0 [1, 7]: 78 µg/mL
- clearance [1, 7]: 27.1 mL/min/kg
- half-life [1, 7]: 63.6 min
- AUC(0-inf) ([1]; mouse, plasma, after iv Int 1-4 9.4 mg/kg, read-out: AUC0-inf): 5000 ng·h/mL
- MRT inf ([1]; mouse, plasma, after iv Int 1-4 9.4 mg/kg, read-out: MRT0-inf): 20.8 min
- MRT last ([1]; mouse, plasma, after iv Int 1-4 9.4 mg/kg, read-out: MRT0-last): 19.7 min
- Vd ([1]; mouse, plasma, after iv Int 1-4 9.4 mg/kg, read-out: Vdss): 0.566 L/kg
- AUC0-inf/AUC0-last ([1]; plasma, after iv Int 1-4 9.4 mg/kg): 100%
- AUC(0-t) [2, 8]: 3620 ng·h/mL
- C0 [2, 8]: 33.8 µg/mL
- clearance [2, 8]: 48.3 mL/min/kg
- half-life [2, 8]: 70.8 min
- AUC(0-inf) ([2]; 10 mg/kg, after iv Int 1-4 10.0 mg/kg, Formulation 1, read-out: AUC0-inf): 3630 ng·h/mL
- MRT inf ([2]; 10 mg/kg, after iv Int 1-4 10.0 mg/kg, Formulation 1, read-out: MRT0-inf): 45.4 min
- MRT last ([2]; 10 mg/kg, after iv Int 1-4 10.0 mg/kg, Formulation 1, read-out: MRT0-last): 43.4 min
- Vd ([2]; 10 mg/kg, after iv Int 1-4 10.0 mg/kg, Formulation 1, read-out: Vdss): 2.01 L/kg
- AUC(0-t) [2, 9]: 4210 ng·h/mL
- C0 [2, 9]: 43 µg/mL
- clearance [2, 9]: 38.9 mL/min/kg
- half-life [2, 9]: 109 min
- AUC(0-inf) ([2]; 10 mg/kg, after iv Int 1-4 10.0 mg/kg, Formulation 2, read-out: AUC0-inf): 4290 ng·h/mL
- MRT inf ([2]; 10 mg/kg, after iv Int 1-4 10.0 mg/kg, Formulation 2, read-out: MRT0-inf): 59 min
- MRT last ([2]; 10 mg/kg, after iv Int 1-4 10.0 mg/kg, Formulation 2, read-out: MRT0-last): 47.8 min
- Vd ([2]; 10 mg/kg, after iv Int 1-4 10.0 mg/kg, Formulation 2, read-out: Vdss): 2.3 L/kg
- AUC(0-t) [2, 10]: 2570 ng·h/mL
- half-life [2, 10]: 58.4 min
- AUC(0-inf) ([2]; 11.6 mg/kg, after iv Compound 1 11.6 mg/kg, read-out: AUC0-inf): 2610 ng·h/mL
- Cmax [2, 10]: 20 µg/mL
- MRT inf ([2]; 11.6 mg/kg, after iv Compound 1 11.6 mg/kg, read-out: MRT0-inf): 40.4 min
- MRT last ([2]; 11.6 mg/kg, after iv Compound 1 11.6 mg/kg, read-out: MRT0-last): 33.2 min
- Tmax [2, 10]: 1.5 min
- AUC(0-t) [2, 11]: 6370 ng·h/mL
- half-life [2, 11]: 55.8 min
- AUC(0-inf) ([2]; 23.2 mg/kg, after iv Compound 1 23.2 mg/kg, read-out: AUC0-inf): 6380 ng·h/mL
- Cmax [2, 11]: 29.9 µg/mL
- MRT inf ([2]; 23.2 mg/kg, after iv Compound 1 23.2 mg/kg, read-out: MRT0-inf): 47.6 min
- MRT last ([2]; 23.2 mg/kg, after iv Compound 1 23.2 mg/kg, read-out: MRT0-last): 46.7 min
- Tmax [2, 11]: 1.5 min
- AUC(0-inf) [3, 12]: 5470 ng·h/mL
- AUC(0-t) [3, 12]: 5460 ng·h/mL
- clearance [3, 12]: 15.4 mL/min/kg
- half-life [3, 12]: 43.8 min
- C0 [3, 12]: 81 µg/mL
- MRT inf [3, 12]: 19.8 min
- MRT last [3, 12]: 18.6 min
- Vd [3, 12]: 0.301 L/kg
- AUC(0-inf) [3, 13]: 17400 ng·h/mL
- AUC(0-t) [3, 13]: 17400 ng·h/mL
- clearance [3, 13]: 9.65 mL/min/kg
- half-life [3, 13]: 55.8 min
- C0 [3, 13]: 166 µg/mL
- MRT inf [3, 13]: 26.4 min
- MRT last [3, 13]: 25.8 min
- Vd [3, 13]: 0.253 L/kg
- fold longer half-life than gemcitabine ([4]; male cynomolgus monkey plasma): ~50 fold
- AUC(0-t) [4, 14]: 5950 ng·h/mL
- C0 [4, 14]: 99.7 µg/mL
- clearance [4, 14]: 14.6 mL/min/kg
- half-life [4, 14]: 45 min
- AUC(0-inf) [4, 14]: 5960 ng·h/mL
- MRT inf [4, 14]: 19.8 min
- MRT last [4, 14]: 19.2 min
- Vd [4, 14]: 0.287 L/kg
- AUC(0-t) [4, 15]: 11900 ng·h/mL
- C0 [4, 15]: 146 µg/mL
- clearance [4, 15]: 15 mL/min/kg
- half-life [4, 15]: 59.4 min
- AUC(0-inf) [4, 15]: 11900 ng·h/mL
- MRT inf [4, 15]: 23.4 min
- MRT last [4, 15]: 22.8 min
- Vd [4, 15]: 0.349 L/kg
- AUC(0-t) [5, 16]: 4730 ng·h/mL
- C0 [5, 16]: 60.5 µg/mL
- clearance [5, 16]: 35.2 mL/min/kg
- half-life [5, 16]: 32.4 min
- AUC(0-inf) [5, 16]: 4740 ng·h/mL
- MRT inf [5, 16]: 14.4 min
- MRT last [5, 16]: 13.8 min
- Vd [5, 16]: 0.504 L/kg
- AUC(0-t) [5, 17]: 7930 ng·h/mL
- C0 [5, 17]: 90.9 µg/mL
- clearance [5, 17]: 43.3 mL/min/kg
- half-life [5, 17]: 31.2 min
- AUC(0-inf) [5, 17]: 7940 ng·h/mL
- MRT inf [5, 17]: 13.8 min
- MRT last [5, 17]: 13.2 min
- Vd [5, 17]: 0.58 L/kg
- AUC(0-t) [6, 18]: 2700 ng·h/mL
- C0 [6, 18]: 40 µg/mL
- clearance [6, 18]: 30.8 mL/min/kg
- half-life [6, 18]: 15 min
- AUC(0-inf) [6, 18]: 2730 ng·h/mL
- Cmax ([6]; after iv Int 1-4 5 mg/kg (study k), read-out: Cmax): 30.5 µg/mL
- MRT inf [6, 18]: 7.2 min
- MRT last [6, 18]: 6.6 min
- Vd [6, 18]: 0.23 L/kg
- AUC(0-t) [6, 19]: 7930 ng·h/mL
- C0 [6, 19]: 90.9 µg/mL
- clearance [6, 19]: 43.3 mL/min/kg
- half-life [6, 19]: 31.2 min
- AUC(0-inf) [6, 19]: 7940 ng·h/mL
- MRT inf [6, 19]: 13.8 min
- MRT last [6, 19]: 13.2 min
- Vd [6, 19]: 0.58 L/kg
